Measurements: the supplement of paper PMC10307832

Key:
Test in all cases: relative viability (nuclei count vs DMSO), 5 days (fraction); higher = more cells survive
Axitinib + AZD7762 = compound: CNC(=O)c1ccccc1Sc1ccc2c(/C=C/c3ccccn3)n[nH]c2c1 [Axitinib] + NC(=O)Nc1cc(-c2cccc(F)c2)sc1C(=O)N[C@H]1CCCNC1 [AZD7762] (partner 0.2 µM)
Summary of the method: (§1)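 A single step with final 0.05% Triton X-100, 1% formaldehyde and 1 ug/ml Hoechst fixed the cells and stained nuclei 5 days after treatment. Lung cancer cell lines in 1536-well plates had been treated by pin tool the day after seeding with one drug alone or a fixed anchor-drug dose plus five library-drug doses (not always all listed) in √10 steps, and nuclei were counted on 4× images. Relative viability is the ratio of nuclei in treated wells to nuclei in vehicle wells, taken as the median of duplicate plates.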

Bemcentinib + Decitabine = compound: Nc1nc(Nc2ccc3c(c2)CC[C@@H](N2CCCC2)CC3)nn1-c1cc2c(nn1)-c1ccccc1CCC2 [Bemcentinib] + Nc1ncn([C@H]2C[C@H](O)[C@@H](CO)O2)c(=O)n1 [Decitabine] (partner 2 µM)
Summary of the method: as §1

Axitinib + Dasatinib = compound: CNC(=O)c1ccccc1Sc1ccc2c(/C=C/c3ccccn3)n[nH]c2c1 [Axitinib] + Cc1nc(Nc2ncc(C(=O)Nc3c(C)cccc3Cl)s2)cc(N2CCN(CCO)CC2)n1 [Dasatinib] (partner 0.075 µM)
Summary of the method: as §1

Axitinib + Phenformin = compound: CNC(=O)c1ccccc1Sc1ccc2c(/C=C/c3ccccn3)n[nH]c2c1 [Axitinib] + N=C(N)NC(=N)NCCc1ccccc1 [Phenformin] (partner 250 µM)
Summary of the method: as §1

Cell Line	relative viability (Axitinib + AZD7762; first compound 0.005 µM)	relative viability (Axitinib + AZD7762; first compound 0.01581 µM)	relative viability (Axitinib + AZD7762; first compound 0.05 µM)	relative viability (Axitinib + AZD7762; first compound 0.1581 µM)	relative viability (Axitinib + AZD7762; first compound 0.5 µM)	relative viability (Bemcentinib + Decitabine; first compound 0.04 µM)	relative viability (Bemcentinib + Decitabine; first compound 0.1265 µM)	relative viability (Bemcentinib + Decitabine; first compound 0.4 µM)	relative viability (Bemcentinib + Decitabine; first compound 1.265 µM)	relative viability (Bemcentinib + Decitabine; first compound 4 µM)	relative viability (Axitinib + Dasatinib; first compound 0.005 µM)	relative viability (Axitinib + Dasatinib; first compound 0.01581 µM)	relative viability (Axitinib + Dasatinib; first compound 0.05 µM)	relative viability (Axitinib + Dasatinib; first compound 0.1581 µM)	relative viability (Axitinib + Dasatinib; first compound 0.5 µM)	relative viability (Axitinib + Phenformin; first compound 0.005 µM)	relative viability (Axitinib + Phenformin; first compound 0.01581 µM)	relative viability (Axitinib + Phenformin; first compound 0.05 µM)	relative viability (Axitinib + Phenformin; first compound 0.1581 µM)	relative viability (Axitinib + Phenformin; first compound 0.5 µM)
NCI-H596	1.14	0.978	1.12	1.12	0.943	1	1.04	1.09	1.1	1.08	0.519	0.477	0.653	0.569	0.507	0.735	0.784	0.841	0.746	0.638
NCI-H647	0.449	0.32	0.583	0.36	0.539	0.386	0.296	0.494	0.368	0.454	0.206	0.182	0.194	0.18	0.126	0.663	0.498	0.558	0.504	0.893
NCI-H727	0.488	0.554	0.629	0.738	0.584	0.832	0.932	0.807	0.717	0.891	0.403	0.371	0.436	0.465	0.347	0.7	0.519	0.589	0.536	0.728
NCI-H838	0.929	0.97	0.963	0.926	1.06	0.483	0.484	0.497	0.47	0.517	0.288	0.352	0.342	0.282	0.262	0.697	0.509	0.763	0.564	0.654
NCI-H1355	0.799	0.833	0.845	0.769	0.735	0.341	0.35	0.376	0.347	0.431	0.723	0.766	0.779	0.757	0.642	0.457	0.46	0.497	0.44	0.43
NCI-H1395	0.4	0.378	0.386	0.405	0.386	–	0.683	0.757	0.737	0.745	0.403	0.425	0.39	0.404	0.397	0.485	0.382	0.465	0.441	0.45
NCI-H1437	1.14	1.13	1.07	1.08	1.03	0.58	0.602	0.558	0.584	0.571	0.396	0.388	0.448	0.388	0.442	0.335	0.314	0.357	0.277	0.299
NCI-H1651	0.466	0.416	0.481	0.467	0.533	0.588	0.623	0.678	0.491	0.584	0.482	0.396	0.409	0.404	0.502	0.295	0.295	0.347	0.304	0.353
